In brackets after ≈: the same amount, converted by molar mass.
Columns and labels:
[1] = tested on: Candida albicans; test: microbe, parasite or virus in culture; format: functional
[2] = tested on: Pseudomonas aeruginosa; test: microbe, parasite or virus in culture; format: functional
Description: Antibacterial activity against Pseudomonas aeruginosa

[3] = tested on: Escherichia coli; test: microbe, parasite or virus in culture; format: functional
Description: Antibacterial activity against Escherichia coli

[4] = tested on: Staphylococcus aureus; test: microbe, parasite or virus in culture; format: functional
Description: Antibacterial activity against Staphylococcus aureus

[5] = tested on: Candida albicans; test: Antifungal activity against Candida albicans at 300 ug/ml; format: functional; conditions: read-out: IZ
[6] = tested on: Pseudomonas aeruginosa; test: microbe, parasite or virus in culture; format: functional; conditions: read-out: IZ
Description: Antibacterial activity against Pseudomonas aeruginosa at 300 ug/ml

[7] = tested on: Escherichia coli; test: microbe, parasite or virus in culture; format: functional; conditions: read-out: IZ
Description: Antibacterial activity against Escherichia coli at 300 ug/ml

[8] = tested on: Bacillus subtilis; test: microbe, parasite or virus in culture; format: functional; conditions: read-out: IZ
Description: Antibacterial activity against Bacillus subtilis at 300 ug/ml

[9] = tested on: Staphylococcus aureus; test: microbe, parasite or virus in culture; format: functional; conditions: read-out: IZ
Description: Antibacterial activity against Staphylococcus aureus at 300 ug/ml

[10] = tested on: Bacillus subtilis; test: microbe, parasite or virus in culture; format: functional
Description: Antibacterial activity against Bacillus subtilis

[11] = tested on: Candida albicans
[12] = tested on: Candida albicans; remark: listed apart in the source

Compound | MIC [1] | MIC [2] | MIC [3] | MIC [4] | zone of inhibition at 300 µg/mL [5] | zone of inhibition at 300 µg/mL [6] | zone of inhibition at 300 µg/mL [7] | zone of inhibition at 300 µg/mL [8] | zone of inhibition at 300 µg/mL [9] | MIC [10] | MIC [11] | IZ [12]
COc1ccc(-[n+]2noc([O-])c2Cn2c(-c3ccc(Cl)c(Cl)c3)nc3ccccc32)cc1 | 200 µg/mL (≈ 428 µM) | 300 µg/mL (≈ 642 µM) | 300 µg/mL (≈ 642 µM) | 300 µg/mL (≈ 642 µM) | 15 mm | 14 mm | 13 mm | 12 mm | 11 mm | 200 µg/mL (≈ 428 µM) | – | –
COc1ccc(-[n+]2noc([O-])c2CNc2nc3ccc(OC)cc3s2)cc1 | 100 µg/mL (≈ 260 µM) | 200 µg/mL (≈ 520 µM) | 200 µg/mL (≈ 520 µM) | 100 µg/mL (≈ 260 µM) | 15 mm | 14 mm | 13 mm | 12 mm | 14 mm | 200 µg/mL (≈ 520 µM) | – | –
COc1ccc(-[n+]2noc([O-])c2CNc2nc3cc([N+](=O)[O-])ccc3s2)cc1 | 200 µg/mL (≈ 501 µM) | 500 µg/mL (≈ 1250 µM) | 300 µg/mL (≈ 751 µM) | 500 µg/mL (≈ 1250 µM) | 14 mm | 10 mm | 12 mm | 10 mm | 10 mm | 500 µg/mL (≈ 1250 µM) | – | –
COc1ccc(-[n+]2noc([O-])c2Cn2c(-c3ccc(OC)c([N+](=O)[O-])c3)nc3ccccc32)cc1 | 200 µg/mL (≈ 422 µM) | 200 µg/mL (≈ 422 µM) | 200 µg/mL (≈ 422 µM) | 500 µg/mL (≈ 1060 µM) | 16 mm | 16 mm | 14 mm | 10 mm | 10 mm | 500 µg/mL (≈ 1060 µM) | – | –
COc1ccc(-[n+]2noc([O-])c2CNc2ccccc2[N+](=O)[O-])cc1 | 200 µg/mL (≈ 584 µM) | 200 µg/mL (≈ 584 µM) | 200 µg/mL (≈ 584 µM) | 300 µg/mL (≈ 876 µM) | 14 mm | 13 mm | 14 mm | 13 mm | 11 mm | 200 µg/mL (≈ 584 µM) | – | –
CCOc1ccc2nc(NCc3c([O-])on[n+]3-c3ccc(OC)cc3)sc2c1 | 200 µg/mL (≈ 502 µM) | 200 µg/mL (≈ 502 µM) | 300 µg/mL (≈ 753 µM) | 200 µg/mL (≈ 502 µM) | 14 mm | 13 mm | 13 mm | 13 mm | 14 mm | 200 µg/mL (≈ 502 µM) | – | –
COc1ccc(-[n+]2noc([O-])c2CNc2nc3c([N+](=O)[O-])cccc3s2)cc1 | 20 µg/mL (≈ 50.1 µM) | 100 µg/mL (≈ 250 µM) | 40 µg/mL (≈ 100 µM) | 20 µg/mL (≈ 50.1 µM) | 32 mm | 18 mm | 23 mm | 30 mm | 27 mm | 20 µg/mL (≈ 50.1 µM) | – | –
COc1ccc(-[n+]2noc([O-])c2Cn2cnc3ccccc32)cc1 | 300 µg/mL (≈ 931 µM) | 500 µg/mL (≈ 1550 µM) | 500 µg/mL (≈ 1550 µM) | 300 µg/mL (≈ 931 µM) | 12 mm | 10 mm | 10 mm | 11 mm | 11 mm | 300 µg/mL (≈ 931 µM) | – | –
COc1ccc(-[n+]2noc([O-])c2CNc2nc3ccc(Br)cc3s2)cc1 | 80 µg/mL (≈ 185 µM) | 200 µg/mL (≈ 462 µM) | 300 µg/mL (≈ 692 µM) | 100 µg/mL (≈ 231 µM) | 21 mm | 12 mm | 11 mm | 15 mm | 18 mm | 100 µg/mL (≈ 231 µM) | – | –
NYSTATIN | – | – | – | – | – | – | – | – | – | – | 100 µg/mL | 28 mm
CCOc1ccc(NCc2c([O-])on[n+]2-c2ccc(OC)cc2)cc1 | 200 µg/mL (≈ 586 µM) | 100 µg/mL (≈ 293 µM) | 200 µg/mL (≈ 586 µM) | 40 µg/mL (≈ 117 µM) | 16 mm | 15 mm | 13 mm | 16 mm | 17 mm | 80 µg/mL (≈ 234 µM) | – | –
COc1ccc(-[n+]2noc([O-])c2CNc2nc3ccc([N+](=O)[O-])cc3s2)cc1 | 100 µg/mL (≈ 250 µM) | 200 µg/mL (≈ 501 µM) | 300 µg/mL (≈ 751 µM) | 80 µg/mL (≈ 200 µM) | 17 mm | 16 mm | 12 mm | 18 mm | 16 mm | 40 µg/mL (≈ 100 µM) | – | –
COc1ccc(-[n+]2noc([O-])c2CNc2nc3ccc(C#N)cc3s2)cc1 | 100 µg/mL (≈ 264 µM) | 500 µg/mL (≈ 1320 µM) | 300 µg/mL (≈ 791 µM) | 80 µg/mL (≈ 211 µM) | 17 mm | 10 mm | 12 mm | 17 mm | 16 mm | 60 µg/mL (≈ 158 µM) | – | –
COc1ccc(-[n+]2noc([O-])c2CNc2ccc([N+](=O)[O-])cc2)cc1 | 200 µg/mL (≈ 584 µM) | 200 µg/mL (≈ 584 µM) | 200 µg/mL (≈ 584 µM) | 500 µg/mL (≈ 1460 µM) | 14 mm | 14 mm | 14 mm | 12 mm | 10 mm | 200 µg/mL (≈ 584 µM) | – | –
COc1ccc(-[n+]2noc([O-])c2CNc2ccc(C)cc2)cc1 | 200 µg/mL (≈ 642 µM) | 200 µg/mL (≈ 642 µM) | 200 µg/mL (≈ 642 µM) | 200 µg/mL (≈ 642 µM) | 16 mm | 13 mm | 13 mm | 14 mm | 13 mm | 200 µg/mL (≈ 642 µM) | – | –
COc1ccc(-[n+]2noc([O-])c2Cn2c(-c3ccccc3[N+](=O)[O-])nc3ccccc32)cc1 | 200 µg/mL (≈ 451 µM) | 500 µg/mL (≈ 1130 µM) | 200 µg/mL (≈ 451 µM) | 40 µg/mL (≈ 90.2 µM) | 14 mm | 10 mm | 14 mm | 12 mm | 21 mm | 300 µg/mL (≈ 677 µM) | – | –

From ChEMBL document CHEMBL3045422, “Synthesis, characterization, and antimicrobial screening of some Mannich base sydnone derivatives” (2013)
